# Data: publication PMC10176470, “Engaging a Non-catalytic Cysteine Residue Drives Potent and Selective Inhibition of Caspase-6” (Journal of the American Chemical Society, 2023)
# Experiments:
# Test in all cases: SILAC proteomics / in-gel fluorescence, competition of probe 13-t labeling by 3a
# [1] = biological target: T1, proteins of HEK293T cells transiently overexpressing caspase-6 (Homo sapiens, UniProt Q8WUM4)
# T1 sequence (Q8WUM4 1-868): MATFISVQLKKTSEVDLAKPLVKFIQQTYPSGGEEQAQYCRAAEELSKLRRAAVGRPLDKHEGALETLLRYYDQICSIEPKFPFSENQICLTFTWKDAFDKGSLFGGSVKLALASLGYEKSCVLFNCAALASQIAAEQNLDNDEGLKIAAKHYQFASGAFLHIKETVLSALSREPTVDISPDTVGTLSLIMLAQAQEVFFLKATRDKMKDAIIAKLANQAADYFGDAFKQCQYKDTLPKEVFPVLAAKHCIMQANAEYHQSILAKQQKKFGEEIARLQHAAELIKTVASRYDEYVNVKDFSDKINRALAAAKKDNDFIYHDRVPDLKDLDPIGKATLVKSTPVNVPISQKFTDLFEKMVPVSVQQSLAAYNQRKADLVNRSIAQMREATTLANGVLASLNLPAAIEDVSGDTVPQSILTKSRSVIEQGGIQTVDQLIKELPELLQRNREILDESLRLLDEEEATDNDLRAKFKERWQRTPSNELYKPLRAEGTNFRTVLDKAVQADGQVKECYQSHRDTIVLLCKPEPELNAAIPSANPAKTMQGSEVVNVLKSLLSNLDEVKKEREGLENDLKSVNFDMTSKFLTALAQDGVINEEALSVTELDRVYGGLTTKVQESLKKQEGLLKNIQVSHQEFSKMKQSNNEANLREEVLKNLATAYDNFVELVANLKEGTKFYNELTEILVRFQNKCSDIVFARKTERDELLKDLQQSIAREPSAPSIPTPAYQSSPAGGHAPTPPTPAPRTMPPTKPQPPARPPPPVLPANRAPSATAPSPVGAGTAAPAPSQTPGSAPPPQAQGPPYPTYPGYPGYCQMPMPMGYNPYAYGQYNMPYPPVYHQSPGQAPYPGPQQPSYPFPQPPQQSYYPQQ
# [2] = biological target: proteins of HEK293T cells transiently overexpressing caspase-6 (Homo sapiens, UniProt P12277); conditions: Comp; protein CKB P12277
# [3] = biological target: proteins of HEK293T cells transiently overexpressing caspase-6 (Homo sapiens, UniProt P42704); conditions: Comp; protein LRPPRC P42704
# [4] = biological target: proteins of HEK293T cells transiently overexpressing caspase-6 (Homo sapiens, UniProt P62826); conditions: Comp; protein RAN P62826
# [5] = biological target: proteins of HEK293T cells transiently overexpressing caspase-6 (Homo sapiens, UniProt P11142); conditions: Comp; protein HSPA8 P11142
# [6] = biological target: T2, proteins of HEK293T cells transiently overexpressing caspase-6 (Homo sapiens, UniProt P30084)
# T2 sequence (P30084 28-290): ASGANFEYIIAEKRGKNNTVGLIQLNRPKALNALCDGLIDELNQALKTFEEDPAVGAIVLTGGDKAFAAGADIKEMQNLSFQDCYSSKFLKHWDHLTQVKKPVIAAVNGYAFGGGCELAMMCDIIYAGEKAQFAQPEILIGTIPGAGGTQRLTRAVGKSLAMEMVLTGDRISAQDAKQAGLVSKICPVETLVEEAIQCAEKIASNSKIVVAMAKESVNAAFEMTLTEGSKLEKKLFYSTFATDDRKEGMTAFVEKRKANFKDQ
# [7] = biological target: proteins of HEK293T cells transiently overexpressing caspase-6 (Homo sapiens, UniProt Q07666); conditions: Comp; protein KHDRBS1 Q07666
# [8] = biological target: proteins of HEK293T cells transiently overexpressing caspase-6 (Homo sapiens, UniProt P62424); conditions: Comp; protein RPL7A P62424
# [9] = biological target: proteins of HEK293T cells transiently overexpressing caspase-6 (Homo sapiens, UniProt P11021)
# [10] = biological target: T3, proteins of HEK293T cells transiently overexpressing caspase-6 (Homo sapiens, UniProt P12236)
# T3 sequence (P12236 1-298): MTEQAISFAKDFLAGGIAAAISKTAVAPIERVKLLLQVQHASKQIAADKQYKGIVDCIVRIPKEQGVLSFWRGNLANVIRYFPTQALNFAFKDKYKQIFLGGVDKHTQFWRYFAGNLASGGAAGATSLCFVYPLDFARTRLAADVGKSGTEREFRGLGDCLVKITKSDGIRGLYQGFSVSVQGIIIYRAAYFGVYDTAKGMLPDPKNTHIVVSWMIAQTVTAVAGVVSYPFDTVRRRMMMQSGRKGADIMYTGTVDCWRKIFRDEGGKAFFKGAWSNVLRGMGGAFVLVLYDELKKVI
# [11] = protein PDCD6IP (Q8WUM4), Exp Comp, analysis C6, p 0.5000, 2 peptides
# [12] = protein ECHS1 (P30084), Exp Comp, analysis C6, p 0.1250, 5 peptides
# [13] = protein HSPA5 (P11021), Exp Comp, analysis C6, p 0.000244, 13 peptides
# [14] = protein SLC25A6 (P12236), Exp Comp, analysis C6, p 0.5000, 2 peptides
# Sequence of proteins of HEK293T cells transiently overexpressing caspase-6 (Homo sapiens, UniProt P11021) (P11021 19-654): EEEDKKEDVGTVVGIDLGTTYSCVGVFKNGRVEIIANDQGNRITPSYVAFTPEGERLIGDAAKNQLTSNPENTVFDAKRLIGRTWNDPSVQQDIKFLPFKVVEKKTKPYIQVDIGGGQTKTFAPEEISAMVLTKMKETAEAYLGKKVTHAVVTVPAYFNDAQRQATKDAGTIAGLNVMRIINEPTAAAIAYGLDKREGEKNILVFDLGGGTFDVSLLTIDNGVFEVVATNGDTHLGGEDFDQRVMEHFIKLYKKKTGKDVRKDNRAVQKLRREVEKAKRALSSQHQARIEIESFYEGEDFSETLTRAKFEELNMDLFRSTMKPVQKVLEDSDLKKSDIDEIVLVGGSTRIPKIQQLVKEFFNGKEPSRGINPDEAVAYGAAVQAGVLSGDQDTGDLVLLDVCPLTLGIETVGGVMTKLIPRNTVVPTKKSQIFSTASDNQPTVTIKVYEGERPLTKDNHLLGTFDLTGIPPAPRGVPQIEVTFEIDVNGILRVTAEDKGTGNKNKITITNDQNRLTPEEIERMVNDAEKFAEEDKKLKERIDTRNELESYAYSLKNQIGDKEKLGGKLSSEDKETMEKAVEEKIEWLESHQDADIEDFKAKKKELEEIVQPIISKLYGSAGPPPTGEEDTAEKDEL
# Sequence of proteins of HEK293T cells transiently overexpressing caspase-6 (Homo sapiens, UniProt Q07666) (Q07666 whole entry): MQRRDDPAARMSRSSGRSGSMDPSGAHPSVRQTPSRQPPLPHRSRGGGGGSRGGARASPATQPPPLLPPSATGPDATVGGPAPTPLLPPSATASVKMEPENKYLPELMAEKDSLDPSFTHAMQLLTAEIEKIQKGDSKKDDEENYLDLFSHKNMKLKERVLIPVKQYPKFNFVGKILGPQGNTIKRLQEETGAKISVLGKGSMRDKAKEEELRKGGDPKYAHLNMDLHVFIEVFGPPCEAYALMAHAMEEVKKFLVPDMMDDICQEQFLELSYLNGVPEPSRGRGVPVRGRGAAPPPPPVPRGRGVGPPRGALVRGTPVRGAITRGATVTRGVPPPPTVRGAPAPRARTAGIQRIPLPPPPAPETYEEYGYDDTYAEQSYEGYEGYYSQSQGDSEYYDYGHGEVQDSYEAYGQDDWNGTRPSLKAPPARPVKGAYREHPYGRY
# Sequence of proteins of HEK293T cells transiently overexpressing caspase-6 (Homo sapiens, UniProt P11142) (P11142 whole entry): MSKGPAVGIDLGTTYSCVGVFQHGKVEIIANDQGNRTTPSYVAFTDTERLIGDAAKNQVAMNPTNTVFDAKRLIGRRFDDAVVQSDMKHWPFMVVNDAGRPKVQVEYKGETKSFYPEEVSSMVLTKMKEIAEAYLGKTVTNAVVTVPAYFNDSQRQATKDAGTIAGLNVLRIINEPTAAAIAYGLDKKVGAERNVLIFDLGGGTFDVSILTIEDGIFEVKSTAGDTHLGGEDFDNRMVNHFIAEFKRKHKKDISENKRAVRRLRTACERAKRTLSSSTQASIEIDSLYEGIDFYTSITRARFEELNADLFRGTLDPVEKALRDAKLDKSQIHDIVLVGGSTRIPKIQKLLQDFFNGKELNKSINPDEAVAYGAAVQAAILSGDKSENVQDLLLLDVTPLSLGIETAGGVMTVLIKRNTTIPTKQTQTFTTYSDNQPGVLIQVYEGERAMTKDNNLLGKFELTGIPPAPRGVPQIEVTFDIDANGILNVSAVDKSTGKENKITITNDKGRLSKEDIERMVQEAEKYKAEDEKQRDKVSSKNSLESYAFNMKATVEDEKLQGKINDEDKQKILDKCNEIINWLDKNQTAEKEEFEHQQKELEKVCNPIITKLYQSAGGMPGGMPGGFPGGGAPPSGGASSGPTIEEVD
# Sequence of proteins of HEK293T cells transiently overexpressing caspase-6 (Homo sapiens, UniProt P12277) (P12277 whole entry): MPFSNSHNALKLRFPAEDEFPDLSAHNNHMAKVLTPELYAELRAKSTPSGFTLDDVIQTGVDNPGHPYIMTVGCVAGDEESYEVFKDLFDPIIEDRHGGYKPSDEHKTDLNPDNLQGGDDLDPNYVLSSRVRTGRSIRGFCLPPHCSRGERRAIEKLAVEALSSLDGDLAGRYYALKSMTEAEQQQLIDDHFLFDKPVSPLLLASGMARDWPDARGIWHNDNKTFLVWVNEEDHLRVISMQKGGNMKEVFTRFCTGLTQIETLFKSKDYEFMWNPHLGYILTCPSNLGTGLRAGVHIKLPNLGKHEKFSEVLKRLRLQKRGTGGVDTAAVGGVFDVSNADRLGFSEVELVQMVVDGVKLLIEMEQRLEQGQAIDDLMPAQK
smiles,measurement,setting,value
C=CS(=O)(=O)N1C[C@H](C(=O)Nc2ccc(OC(F)(F)F)cc2)C[C@@H](c2ccccc2)C1 [3a],enrich.exp.med,"[1]; Comp, protein PDCD6IP Q8WUM4",1
same,enrich.exp.med.lin,[1]; [11],2
same,enrich.exp.med.log2,[1]; [11],1
same,enrich.exp.med,[2],0.6631
same,enrich.exp.med,[3],0.6677
same,enrich.exp.med,[4],0.6474
same,enrich.exp.med,[5],0.6036
same,enrich.exp.med,"[6]; Comp, protein ECHS1 P30084",2.261
same,enrich.exp.med.lin,[6]; [12],4.794
same,enrich.exp.med.log2,[6]; [12],2.261
same,enrich.exp.med,[7],0.748
same,enrich.exp.med,[8],0.707
same,enrich.exp.med,"[9]; Comp, protein HSPA5 P11021",1.086
same,enrich.exp.med.lin,[9]; [13],2.123
same,enrich.exp.med.log2,[9]; [13],1.086
same,enrich.exp.med,"[10]; Comp, protein SLC25A6 P12236",3.139
same,enrich.exp.med.lin,[10]; [14],8.81
same,enrich.exp.med.log2,[10]; [14],3.139
